In patent EP4813463A2, “TYK2 INHIBITORS AND COMPOSITIONS AND METHODS THEREOF” (Lynk Pharmaceuticals Co. Ltd., priority 2023, dated 2024):
Read-outs that look alike come from different tables or passages of the source.

Experiments:
TYK2-JH2 domain = molecular target: T1, TYK2-JH2 domain (Homo sapiens, UniProt P29597); assay: Binding activity test for JH2 domain of TYK2 (Tb-antibody/tracer FRET)
T1 construct: JAK1-JH2 domain or TYK2-JH2 domain enzyme in assay buffer
Description: Binding Activity test for JH2 domain of JAK1 and TYK2 […] Add 8μL/well in echo source plate, echo will add 75nL/well with 3-fold serial dilution for 11 points in assay plate. 75nL DMSO for high control and low control. […] For low control, add 5μL/well assay buffer. And then spin down at 1000rpm and centrifuge for 30 seconds. After enzyme system prepared, add 5μL of Tb-antibody solution into each well of assay plate. Spin down at 1000 rpm and centrifuge for 30sec. After Tb-antibody added, also add 5μL of tracer into the assay plate. Spin down at 1000rpm and centrifuge for 30sec. Incubate for […] at 25°C firstly and then continue to incubate the plate at 4°C overnight. Read by envision in FRET mode. The Luminescence value was recorded by a multi-label reader Envision (PerkinElmer). […] Table 2. IC50 on JH2 domain activity (nM)

[1] = test system: Ba/F3-FL-TYK2-P760L cells; assay: Anti-proliferative assay in engineered Ba/F3 cells (Cell-Titer Glo, 72 h); assay type: cell-based; conditions: 72 h compound treatment, concentration that causes 50% growth inhibition, read-out: Baf3-FL-T2P760L
Description: Dimerization domain of Tel protein fused with JAK kinase domain was permanently transduced into Ba/F3 cells, whose proliferation is dependent on JAK activity in the absence of IL-3 induction. These engineered Ba/F3-FL-TYK2-P760L cells were used to monitor JAK inhibitory activities of the compounds in the cellular. Ba/F3 cells were cultured in RPMI-1640 (Corning) containing 10% fetal bovine serum. Cells were seeded at 2000/well of white flat bottom 96-well plates. The well containing medium only was used as background control. After 24h growth, cells were treated with compounds. The test compounds were dissolved in DMSO to a stock concentration of 20 mM. 3-fold serially diluted compounds for 9 concentrations with top concentration of 20 µM was added into the each well. The final DMSO concentration was 0.1%. The cells continued to grow at 37°C in 5% CO2 for 72 h after compound treatment. The viability was measured by cellular ATP determination using the Cell-Titer Glo luciferase reagent (Promega). The Luminescence value was recorded by a multi-label reader Envision (PerkinElmer). Inhibition Rate was calculated relative to vehicle (DMSO) treated control wells using following formula: % Inhibition = 100−(RLU_compound−RLU_blank)/(RLU_control−RLU_blank) × 100% [formula] wherein • RLU_compound = the relative light unit of cells treated with test compounds • RLU_blank = the relative light unit of medium with DMSO only • RLU_control = the relative light unit of cells treated with DMSO only
Table 4. Ba/F3-FL-TYK2-P760L Cells IC50 Values of Exemplary Compounds

[2] = JH2 domain enzyme; 60 min at 25°C, then 4°C overnight; read-out: TYK2 JH2 Binding IC50

T1 sequence (P29597 589-875 limits assumed): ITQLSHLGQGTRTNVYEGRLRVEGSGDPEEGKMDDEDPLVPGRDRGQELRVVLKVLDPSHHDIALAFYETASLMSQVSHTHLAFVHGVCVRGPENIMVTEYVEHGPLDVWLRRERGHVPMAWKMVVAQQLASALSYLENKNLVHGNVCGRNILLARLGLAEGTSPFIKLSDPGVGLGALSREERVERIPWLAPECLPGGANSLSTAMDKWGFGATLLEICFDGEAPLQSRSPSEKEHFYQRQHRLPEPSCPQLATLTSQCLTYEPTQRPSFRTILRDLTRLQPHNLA

[2H]C([2H])([2H])NC(=O)c1cnc(NC(=O)C2CC2)cc1Nc1nn(C)c2ccc([C@@H](OC)C(F)(F)F)c(OC)c12 [Example 46B, (R)-6-(cyclopropanecarboxamido)-4-((4-methoxy-1-methyl-5-(2,2,2-trifluoro-1-methoxyethyl)-1H-indazol-3-yl)amino)-N-(methyl-d3)nicotinamide]
IC50 (TYK2-JH2 domain; [2]): 0.18 nM | IC50 ([1]; Mus musculus, BaF3, 72 h): 11.2 nM

COC(=O)c1cnc(NC(=O)[C@@H]2C[C@@H]2F)cc1Nc1nn(C)c2ccc(C(O)C(F)(F)F)c(OC)c12 (stereo partly drawn) [Example 122, Methyl 6-((1S,2S)-2-fluorocyclopropane-1-carboxamido)-4-((4-methoxy-1-methyl-5-(2,2,2-trifluoro-1-hydroxyethyl)-1H-indazol-3-yl)amino) nicotinate]
IC50 (TYK2-JH2 domain; [2]): 0.178 nM | IC50 ([1]; Mus musculus, BaF3, 72 h): 1.16 nM

COC(=O)c1cnc(NC(=O)C2CC2)cc1Nc1nn(C)c2ccc(CC#N)c(OC)c12 [Example 145, Methyl 4-((5-(cyanomethyl)-4-methoxy-1-methyl-1H-indazol-3-yl)amino)-6-(cyclopropanecarboxamido)nicotinate]
IC50 (TYK2-JH2 domain; [2]): 0.151 nM | IC50 ([1]; Mus musculus, BaF3, 72 h): 15.2 nM

CCC(F)(F)c1cnc(NC(=O)C2CC2)cc1Nc1nc2ccc(N3CC(OC)C3)cn2n1 [Example 183, N-(5-(1,1-Difluoropropyl)-4-((6-(3-methoxyazetidin-1-yl)-[1,2,4]triazolo[1,5-a]pyridin-2-yl)amino)pyridin-2-yl)cyclopropanecarboxamide]
IC50 ([1]; Mus musculus, BaF3, 72 h): 14.5 nM

CCC(F)(F)c1cnc(NC(=O)C2CC2)cc1Nc1nn(C)c2ccc(C(O)C(F)(F)F)c(OC)c12 (single isomer, unassigned) [Example 193B, (R*)-N-(5-(1,1-Difluoropropyl)-4-((4-methoxy-1-methyl-5-(2,2,2-trifluoro-1-hydroxyethyl)-1H-indazol-3-yl)amino)pyridin-2-yl)cyclopropanecarboxamide]
IC50 (TYK2-JH2 domain; [2]): 1.18 nM | IC50 [1]: 45 nM

COC(=O)c1cnc(NC(=O)C2CC2)cc1Nc1nn(C)c2ccc(C(O)C3(F)CC3)c(OC)c12 (stereo not drawn) [Example 128, Methyl 6-(cyclopropanecarboxamido)-4-((5-((1-fluorocyclopropyl)(hydroxy)methyl)-4-methoxy-1-methyl-1H-indazol-3-yl)amino)nicotinate]
IC50 (TYK2-JH2 domain; [2]): 0.26 nM | IC50 ([1]; Mus musculus, BaF3, 72 h): 17.3 nM

COC(=O)c1cnc(NC(=O)C2CC2)cc1Nc1nn(C)c2ccc(CC(F)(F)F)c(OC)c12 [Example 148, Methyl 6-(cyclopropanecarboxamido)-4-((4-methoxy-1-methyl-5-(2,2,2-trifluoroethyl)-1H-indazol-3-yl)amino)nicotinate]
IC50 (TYK2-JH2 domain; [2]): 0.091 nM | IC50 ([1]; Mus musculus, BaF3, 72 h): 7.08 nM

COCc1ccc2c(c(Nc3cc(NC(=O)C4CC4)ncc3C(=O)OC)nn2C)c1OC [Example 133, Methyl 6-(cyclopropanecarboxamido)-4-((4-methoxy-5-(methoxymethyl)-1-methyl-1H-indazol-3-yl)amino)nicotinate]
IC50 (TYK2-JH2 domain; [2]): 0.288 nM | IC50 ([1]; Mus musculus, BaF3, 72 h): 53.3 nM

[2H]C([2H])([2H])NC(=O)c1cnc(NC(=O)C2CC2)cc1Nc1csc2ccc(C(OC)C(F)(F)F)c(OC)c12 (stereo not drawn) [Example 72, 6-(Cyclopropanecarboxamido)-4-((4-methoxy-5-(2,2,2-trifluoro-1-methoxyethyl)benzo[b]thiophen-3-yl)amino)-N-(methyl-d3)nicotinamide]
IC50 (TYK2-JH2 domain; [2]): 0.14 nM | IC50 ([1]; Mus musculus, BaF3, 72 h): 2.65 nM

[2H]C([2H])([2H])Oc1c([C@H](OC)C(F)(F)F)ccc2c1c(Nc1cc(NC(=O)C3CC3)ncc1C(=O)OC)nn2C [Example 120A, Methyl (S)-6-(cyclopropanecarboxamido)-4-((4-(methoxy-d3)-1-methyl-5-(2,2,2-trifluoro-1-methoxyethyl)-1H-indazol-3-yl)amino)nicotinate]
IC50 (TYK2-JH2 domain; [2]): 0.089 nM | IC50 ([1]; Mus musculus, BaF3, 72 h): 2.71 nM

[2H]C([2H])([2H])NC(=O)c1cnc(NC(=O)C2CC2)cc1Nc1nn(CC)c2ccc(C(O)C(F)(F)F)c(OC)c12 (single isomer, unassigned) [Example 71B, (R*)-6-(cyclopropanecarboxamido)-4-((1-ethyl-4-methoxy-5-(2,2,2-trifluoro-1-hydroxyethyl)-1H-indazol-3-yl)amino)-N-(methyl-d3)nicotinamide]
IC50 (TYK2-JH2 domain; [2]): 0.25 nM | IC50 [1]: 17.9 nM

COC(=O)c1cnc(NC(=O)C2CC2)cc1Nc1nn(C)c2ccc(C(OC)C3(F)CC3)c(OC)c12 (stereo not drawn) [Example 74, Methyl 6-(cyclopropanecarboxamido)-4-((5-((1-fluorocyclopropyl) (methoxy)methyl)-4-methoxy-1-methyl-1H-indazol-3-yl)amino)nicotinate]
IC50 (TYK2-JH2 domain; [2]): 0.18 nM | IC50 ([1]; Mus musculus, BaF3, 72 h): 30.7 nM

[2H]C([2H])([2H])CC(=O)c1cnc(NC(=O)C2CC2)cc1Nc1ncc2cnn(CC(C)(F)F)c2c1OC [Example 155, N-(4-((1-(2,2-difluoropropyl)-7-methoxy-1H-pyrazolo[4,3-c]pyridin-6-yl)amino)-5-(propanoyl-3,3,3-d3)pyridin-2-yl)cyclopropanecarboxamide]
IC50 (TYK2-JH2 domain; [2]): 0.891 nM

CCOC(c1ccc2c(c(Nc3cc(NC(=O)C4CC4)ncc3C(=O)OC)nn2C)c1OC)C(F)(F)F (single isomer, unassigned) [Example 106A, Methyl (R*)-6-(cyclopropanecarboxamido)-4-((5-(1-ethoxy-2,2,2-trifluoroethyl)-4-methoxy-1-methyl-1H-indazol-3-yl)amino)nicotinate]
IC50 (TYK2-JH2 domain; [2]): 4.31 nM

COC(=O)c1c(Nc2nn(C)c3ccc(C(OC)C(F)(F)F)c(OC)c23)cc(NC(=O)C2CC2)nc1F (single isomer, unassigned) [Example 98A, Methyl (R*)-6-(cyclopropanecarboxamido)-2-fluoro-4-((4-methoxy-1-methyl-5-(2,2,2-trifluoro-1-methoxyethyl)-1H-indazol-3-yl)amino)nicotinate]
IC50 (TYK2-JH2 domain; [2]): > 298 nM

COC(=O)c1cnc(NC(=O)C2CC2)cc1Nc1nn(C)c2cccc(OC)c12 [Example 146, Methyl 6-(cyclopropanecarboxamido)-4-((4-methoxy-1-methyl-1H-indazol-3-yl)amino)nicotinate]
IC50 (TYK2-JH2 domain; [2]): 9.8 nM

COC(=O)c1cnc(NC(=O)C2CC2)cc1Nc1nn(COCC[Si](C)(C)C)c2ccc(C(OC)C(F)(F)F)c(OC)c12 (stereo not drawn) [Example 104, Methyl 6-(cyclopropanecarboxamido)-4-((4-methoxy-5-(2,2,2-trifluoro-1-methoxyethyl)-1-((2-(trimethylsilyl)ethoxy)methyl)-1H-indazol-3-yl)amino)nicotinate]
IC50 (TYK2-JH2 domain; [2]): 13.7 nM

COC(=O)c1cnc(NC(=O)C2CC2)cc1Nc1cnn2ccc(C3CCCO3)c(OC)c12 (stereo not drawn) [Example 99, Methyl 6-(cyclopropanecarboxamido)-4-((4-methoxy-5-(tetrahydrofuran-2-yl)pyrazolo[1,5-a]pyridin-3-yl)amino)nicotinate]
IC50 (TYK2-JH2 domain; [2]): 1.79 nM

[2H]C([2H])([2H])OC(=O)c1cnc(NC(=O)C2CC2)cc1Nc1ncc2ccn(C([2H])([2H])C([2H])([2H])[2H])c2c1OC([2H])([2H])[2H] [Example 61, Methyl-d3 6-(cyclopropanecarboxamido)-4-((1-(ethyl-d5)-7-(methoxy-d3)-1H-pyrrolo[3,2-c]pyridin-6-yl)amino) nicotinate]
IC50 (TYK2-JH2 domain; read-out: TYK2 JH2 Binding IC50; JH2 domain enzyme; 60 min at 25°C, then 4°C overnight): 1.36 nM

COC(=O)c1cnc(NC(=O)C2CC2)cc1Nc1nccc2c1N(C)[C@@H](C)c1nn(C)nc1-2 [Example 109, Methyl (S)-6-(cyclopropanecarboxamido)-4-((2,4,5-trimethyl-4,5-dihydro-2H-[1,2,3]triazolo[4,5-c][1,7]naphthyridin-6-yl)amino)nicotinate]
IC50 (TYK2-JH2 domain; [2]): 0.836 nM

COC(=O)c1cnc(NC(=O)C2CC2)cc1Nc1nn(C)c2ccc(C(OC)C(C)C)c(OC)c12 (stereo not drawn) [Example 118, Methyl 6-(cyclopropanecarboxamido)-4-((4-methoxy-5-(1-methoxy-2-methylpropyl)-1-methyl-1H-indazol-3-yl)amino)nicotinate]
IC50 (TYK2-JH2 domain; [2]): 0.943 nM

COC(=O)c1cnc(NC(=O)C2CC2)cc1Nc1ncn2ccc(C(OC)C(F)(F)F)c(OC)c12 (stereo not drawn) [Example 110, Methyl 6-(cyclopropanecarboxamido)-4-((8-methoxy-7-(2,2,2-trifluoro-1-methoxyethyl)imidazo[1,5-a]pyridin-1-yl)amino)nicotinate]
IC50 (TYK2-JH2 domain; [2]): 2.47 nM
